Assay results as given in patent publication US5187165A, “Memory enhancing and analgesic 1,2,3a,8,8a-hexahydro-3a,8(and 1,3a,8)-di(and tri)methylpyrrolo[2,3-b]indoles” (priority 1988, dated 1993).
Where a name gives a salt, the structure may show the parent alone.

Columns and labels:
[1] = molecular target: T1, butyrylcholinesterase (Serum AChE) (Homo sapiens, UniProt P06276); assay: In Vitro Inhibition of Butyrylcholinesterase Activity in Human Serum; format: biochemical
T1 construct: A vial of lyophilized human serum; purchased Biodynamics, Houston, Tex; (Precilip); host or cells: lyophilized human serum, reconstituted in water; enzyme not purified
Description: (§1) Cholinesterases are found throughout the body, both in the brain and in serum. However, only brain acetylcholinesterase (AChE) distribution is correlated with central cholinergic innervation. […] We have determined in vitro inhibition of acetylcholinesterase activity in rat striatum and in vitro inhibition of butrylcholinesterase activity in human serum according to the methods described below.
This assay can be used in conjunction with the acetylcholinesterase assay to determine the enzyme selectivity of various chloinesterase inhibitors.
Butyrylcholinesterase (BChE), which is sometimes called pseudocholinesterase, preferentially hydrolyzes butyrylcholine. This enzyme is found in the highest amounts in serum, but its physiological role is not known.
(§2) (a) 9.9 mg 5,5-dithiobisnitrobenzoic acid (DTNB) (0.25 mM)
(b) 113 mg s-butyrylthiochloine chloride (5 mM)
(§3) (c) q.s. to 100 ml with 0.05M phosphate buffer, pH 7.2 (reagent 1)
A vial of lyophilized human serum (Precilip, Biodynamics, Houston, Tex. is reconstituted in 3 ml of distilled water. A 10 microliter aliquot of this suspension is added to 90 microliter of the vehicle or various concentrations of the test drug and preincubated for 10 minutes at room temperature.
Substantially the same procedure is used as described above in Section C of the Procedure used for determining the inhibition of acetylcholinsterase activity.

norepinephrine uptake [2] = format: biochemical; details: rat brain synaptosomes, 50 nM 3H-NE, 37° C., 5 min; read-out: Reuptake Inhibition of neurotransmitters, Norepinephrine
Acute toxicity (LD50) = format: in vivo; details: death within 24 hours; for LD50 at 24 h: in vivo, ip; for LD50: i.p., 1440 min
Protocol: LD50 is determined by the dose (mg/kg) at which 50% of the test animals die within 24 hours. In many cases this dose is an approximation.

[3] = system: tetrabenazine-induced ptosis; assay: Prevention of Tetrabenazine-Induced Ptosis In Mice (TBZ); format: in vivo
Description: Tetrabenazine (TBZ) induces behavioral depression with concomitant ptosis in mice similar to reserpine. Antidepressant compounds, both monoamineoxidase inhibitors and tricyclics, are known to prevent or antagonize these effects and the degree of antagonism correlates with clinical efficacy. The prevention of TBZ-induced ptosis in mice is used as a preliminary screen for possible antidepressant activity. The method used in this invention is as follows:
Male mice weighing 20 to 30 grams are used in test groups of five subjects. All compounds are dissolved or suspended with a suitable surfactant in distilled water and administered in volumes of 10 ml/kg of body weight. TBZ solution is made from the methanesulfonate salt and the concentration is adjusted to enable administration of 60 mg/kg of base by intraperitoneal (i.p.) injection.
The pretreatment time is measured from the time of dosing to observation. Therefore, when a […] pretreat is utilized, drug and TBZ are given simultaneously. A control group receives solvent and TBZ at intervals identical to drug group. For a primary screen, the drug is administered i.p. and a group size of five is utilized. Eight animals/group are used for a dose range.
Thirty minutes after TBZ, the subjects are placed in individual plastic containers (10.5×8×6 inches) in the presence of white noise and one minute after the transfer, they are scored for ptosis on the following scale: Eyes closed=4, eyes 3/4 closed=3, eyes 1/2 closed=2, eyes 1/4 closed=1, eyes open=0. The total score for each group of five in a primary screen will, therefore, be from 0 to 20 and these scores are used as indications of drug activity.
The vehicle control group score is used as a determinant of the validity of each test. If the control score is less than 17, the results are discarded and the test repeated. The calculation of percent inhibition of ptosis is: [formula]
Linear regression analysis is used to estimate ED50 values and 95% confidence intervals.

yohimbine toxicity = assay: animal or person; format: in vivo, mice; details: for ED50: Mus musculus, po, 18 h, read-out: YTP ED50
Protocol: The potentiation of yohimbine toxicity is considered an additional test for screening antidepressant drugs. The method used in this invention is as follows:
Male mice weighing 20 to 30 grams are used. They are housed under standard laboratory conditions with free access to food and water. Compounds are dissolved in distilled water and a suitable surfactant is added in case of poor solubility. Yohimbine hydrochloride is dissolved in distilled water as well. Both compound and yohimbine are administered in a volume of […].
Compounds and vehicle are administered orally 60 minutes prior to a sublethal dose (30 mg/kg s.c.) of yohimbine hydrochloride which alone causes death in about […] of mice (4 out of 400). Ten mice per group are then placed in plastic cages (26×10×16 cm) with food and water available ad libitum. Mortality rate is assessed 18 hours postdosing. ED50 is defined as dose of drug causing death in 5/10 mice and is calculated by probit analysis.

[4] = system: scopolamine-induced memory deficit; assay: Dark Avoidance Assay (scopolamine induced memory deficit reversal); format: in vivo, mice; details: Mus musculus, sc, 24 h, read-out: % of Animals with Scopolamine Induced Memory Deficit Reversal
Protocol: In this assay mice are tested for their ability to remember an unpleasant stimulus for a period of 24 hours. A mouse is placed in a chamber that contains a dark compartment; a strong incandescent light drives it to the dark compartment, where an electric shock is administered through metal plates on the floor. The animal is removed from the testing apparatus and tested again, 24 hours later, for the ability to remember the electric shock.
If scopolamine, an anticholinergic that is known to cause memory impairment, is administered before an animal's initial exposure to the test chamber, the animal re-enters the dark compartment shortly after being placed in the test chamber 24 hours later. This effect of scopolamine is blocked by an active test compound, resulting in a greater interval before re-entry into the dark compartment.
The results for an active compound are expressed as the percent of a group of animals in which the effect of scopolamine is blocked, as manifested by an increased interval between being placed in the test chamber and re-entering the dark compartment.

[5] = molecular target: T2, acetylcholinesterase (Brain AChE) (Rattus norvegicus, UniProt P37136); assay: In Vitro Inhibition of Acetylcholinesterase Activity in Rat Striatum; format: biochemical
T2 construct: corpora striata dissected free, weighed and homogenized in 19 volumes; from tissue; host or cells: corpora striata of male Wistar rats, crude homogenate in phosphate buffer
T2 sequence (P37136 32-614): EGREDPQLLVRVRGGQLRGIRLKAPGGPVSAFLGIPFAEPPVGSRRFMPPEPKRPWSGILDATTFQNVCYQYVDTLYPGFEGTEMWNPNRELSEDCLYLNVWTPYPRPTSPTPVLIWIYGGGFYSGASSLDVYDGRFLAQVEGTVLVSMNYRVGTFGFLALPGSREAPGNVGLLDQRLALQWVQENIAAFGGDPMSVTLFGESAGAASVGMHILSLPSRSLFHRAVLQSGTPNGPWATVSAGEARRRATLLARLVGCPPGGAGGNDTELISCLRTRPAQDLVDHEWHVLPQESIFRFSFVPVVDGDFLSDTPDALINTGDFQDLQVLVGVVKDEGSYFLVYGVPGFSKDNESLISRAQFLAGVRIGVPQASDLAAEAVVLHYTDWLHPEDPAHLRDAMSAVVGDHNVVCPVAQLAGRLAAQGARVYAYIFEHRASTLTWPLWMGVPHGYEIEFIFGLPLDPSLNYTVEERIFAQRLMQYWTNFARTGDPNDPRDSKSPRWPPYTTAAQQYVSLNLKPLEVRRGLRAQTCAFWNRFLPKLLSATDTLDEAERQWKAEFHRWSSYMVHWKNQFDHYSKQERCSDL
Description: as §1
The method described below was used in this invention for assaying cholinesterase activity. This is a modification of the method of Ellman et al., Biochem. Pharmacol. 7, 98 (1961).
1. 0.05M Phosphate buffer, pH 7.2
as §2
(b) 99 mg s-acetylthiocholine chloride (5 mM)
as §3
Male Wistar rats are decapitated, brains rapidly removed, corpora striata dissected free, weighed and homogenized in 19 volumes (approximately 7 mg protein/ml) of 0.05M phosphate buffer, pH 7.2 using a Potter-Elvehjem homogenizer. A 50 microliter aliquot of the homogenate is added to 50 microliter vehicle of various concentrations of the test drug and preincubated for 10 minutes at room temperature.
1. For routine IC50 determinations the Abbott Bichromatic Analyzer, ABA-100, is used to determine acetylcholinesterase activity.
Incubation temperature: 30° C.
Following the 10 minute preincubation of the tissue (enzyme) with the inhibitor, the samples are mixed with the substrate chromogen buffer by the ABA-100. Using the indicated instrument settings the ABA-100 automatically reads the color reaction and prints out the results in enzyme units after 15 minutes.
2. The enzyme activity can also be measured with Gilford 250 spectrophotometer. This method is used for more accurate kinetic measurments.
Reagents are added to the reference and sample side of a split curvette as follows.
The uninhibited activity of the enzyme (tissue homogenate) is first determined. Test drugs are made up in a suitable solvent and added in suitable dilutions to the buffer vehicle. The reaction rate is determined by the slope of the recorded absorbance change. The actual rate (moles/liter/min) can be calculated as described in the following formula
rate(moles/liter/min)=slope/(1.36×10^4).

[6] = molecular target: T1, butyrylcholinesterase (Serum AChE); details: background statement; cited from earlier work
butyrylcholinesterase = details: ex vivo; cited from earlier work
norepinephrine uptake [7] = details: background statement; cited from earlier work

T1 sequence (P06276 29-602): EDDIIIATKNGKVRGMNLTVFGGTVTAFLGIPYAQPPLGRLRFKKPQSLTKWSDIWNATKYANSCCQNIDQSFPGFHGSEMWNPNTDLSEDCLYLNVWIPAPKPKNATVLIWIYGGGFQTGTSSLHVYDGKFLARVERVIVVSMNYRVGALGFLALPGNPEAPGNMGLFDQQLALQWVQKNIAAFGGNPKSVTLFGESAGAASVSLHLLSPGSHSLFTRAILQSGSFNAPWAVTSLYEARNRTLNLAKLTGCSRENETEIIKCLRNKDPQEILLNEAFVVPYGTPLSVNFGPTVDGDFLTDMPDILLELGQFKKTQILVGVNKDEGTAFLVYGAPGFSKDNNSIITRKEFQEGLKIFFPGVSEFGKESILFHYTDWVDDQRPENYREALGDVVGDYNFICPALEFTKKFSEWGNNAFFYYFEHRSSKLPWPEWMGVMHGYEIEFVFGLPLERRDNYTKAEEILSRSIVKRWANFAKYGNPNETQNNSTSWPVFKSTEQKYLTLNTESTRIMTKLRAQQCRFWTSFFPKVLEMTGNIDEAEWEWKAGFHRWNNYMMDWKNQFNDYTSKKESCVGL

**Q.** Which IC50 [1] does the source give for `C[C@@H](NC(=O)Oc1ccc2c(c1)[C@]1(C)CCN(C)[C@@H]1N2C)c1ccccc1` (relative stereo) [(3aS-cis)-1,2,3,3a,8,8a-Hexahydro-1,3a,8-trimethylpyrrolo[2,3-b]indol-5-ol,[(R*)-(1-phenyl)ethyl] carbamate ester] here?
**A.** The IC50 was 0.9 µM.

**Q.** And the IC50 (norepinephrine uptake [2])?
**A.** The IC50 was 12 µM.

**Q.** What about the LD50 at 24 h (Acute toxicity (LD50)) of the same compound?
**A.** The LD50 at 24 h was roughly 40 mg/kg.

**Q.** And the “% Inhibition, TBZ” value ([3]; 20 mg/kg)?
**A.** Its value is 50%.

**Q.** And the ED50 (yohimbine toxicity)?
**A.** Its ED50 is 16.1 mg/kg.

**Q.** What about the responders at 1.25 mg/kg [4] of the same compound?
**A.** Its responders at 1.25 mg/kg is 67%.

**Q.** What about the IC50 [5] of the same compound?
**A.** Its IC50 is 1.2 µM.

**Q.** What does the source list for `C[C@H](NC(=O)Oc1ccc2c(c1)[C@]1(C)CCN(C)[C@@H]1N2C)c1ccccc1` (relative stereo) [(3aS-cis)-1,2,3,3a,8,8a-Hexahydro-1,3a,8-trimethylpyrrolo[2,3-b]indol-5-ol,[(S*)-(1-phenyl)ethyl] carbamate ester]?
**A.** IC50 [1]: > 1000 µM; IC50 (norepinephrine uptake [2]): 2.2 µM; LD50 (Acute toxicity (LD50)): < 80 mg/kg; LD50 at 24 h (Acute toxicity (LD50)): > 40 mg/kg; % Inhibition, TBZ ([3]; 20 mg/kg): 35%; ED50 (yohimbine toxicity): 30 mg/kg; responders at 0.31 mg/kg [4]: 20%; IC50 [5]: 3.1 µM

**Q.** What does the source list for `CN1CC[C@@]2(C)c3cc(OC(=O)Nc4cccc(Cl)c4)ccc3N(C)[C@@H]12` [(3aS-cis)-1,2,3,3a,8,8a-Hexahydro-1,3a,8-trimethylpyrrolo[2,3-b]indol-5-ol,3-chlorophenyl carbamate ester]?
**A.** IC50 [1]: > 1000 µM; IC50 (norepinephrine uptake [2]): 1.8 µM; LD50 at 24 h (Acute toxicity (LD50)): > 80 mg/kg; % Inhibition, TBZ ([3]; 60 mg/kg): 45%; % Inhibition, YTP (yohimbine toxicity; mice, oral, 80 mg/kg): 63%; responders at 5 mg/kg [4]: 20%; IC50 [5]: 0.6 µM

**Q.** What does the source list for `CN1CC[C@@]2(C)c3cc(OC(=O)Nc4ccncc4)ccc3N(C)[C@@H]12` [(3aS-cis)-1,2,3,3a,8,8a-Hexahydro-1,3a,8-trimethylpyrrolo[2,3-b]indol-5-ol,4-pyridinyl carbamate ester]?
**A.** IC50 (norepinephrine uptake [2]): > 20 µM; LD50 at 24 h (Acute toxicity (LD50)): ~40 mg/kg; responders at 0.31 mg/kg [4]: 27%

**Q.** Which results are given for `CN1CC[C@@]2(C)c3cc(OC(=O)NC4CCCCC4)ccc3N(C)[C@@H]12` [(3aS-cis)-1,2,3,3a,8,8a-Hexahydro-1,3a,8-trimethylpyrrolo[2,3-b]indol-5-ol,cyclohexyl carbamate ester]?
**A.** IC50 [1]: > 1000 µM; LD50 (Acute toxicity (LD50)): < 10 mg/kg; LD50 at 24 h (Acute toxicity (LD50)): > 5 mg/kg; % Inhibition, TBZ ([3]; 1.25 mg/kg): 20%; responders at 0.16 mg/kg [4]: 31%; IC50 [5]: 0.9 µM

**Q.** Which “selectivity of inhibition of butyrylcholinesterase” value [6] does the source give for `CCN(CC)C(C)CN1c2ccccc2Sc2ccccc21` (centres unmarked) [Ethopropazine] here?
**A.** Its value is “selective inhibitors of butyrylcholinesterase”.

**Q.** Which results are given for `CC(C)NP(=O)(NC(C)C)OP(=O)(NC(C)C)NC(C)C` [ISO-OMPA, tetraisopropyl pyrophosphoramide]?
**A.** cholinomimetic effects correlated with butyrylcholinesterase inhibition (butyrylcholinesterase): not correlated with any significant acute chloinomimetic effects; selectivity of inhibition of butyrylcholinesterase [6]: selective inhibitors of butyrylcholinesterase

**Q.** With `COC(=O)[C@H]1[C@@H](OC(=O)c2ccccc2)C[C@@H]2CC[C@H]1N2C` [cocaine] as the compound, how does the “inhibition of NE uptake” value (norepinephrine uptake [7]) read?
**A.** The value was “potently inhibited”.

**Q.** For `C[C@@H]1O[C@@H](O[C@H]2C[C@@H](O)[C@]3(CO)[C@H]4[C@H](O)C[C@]5(C)[C@@H](C6=CC(=O)OC6)CC[C@]5(O)[C@@H]4CC[C@]3(O)C2)[C@H](O)[C@H](O)[C@H]1O` [ouabain], which “inhibition of NE uptake” value (norepinephrine uptake [7]) is on record?
**A.** Its value is “inhibited”.

**Q.** Which “inhibition of NE uptake” value (norepinephrine uptake [7]) does the source give for `CC(COc1ccccc1)N(CCCl)Cc1ccccc1` (centres unmarked) [phenoxybenzamine] here?
**A.** The value was “inhibited”.

**Q.** For `COC(=O)[C@@H]1[C@H]2C[C@H]3c4[nH]c5ccccc5c4CCN3C[C@@H]2CC[C@@H]1O` [yohimbine hydrochloride, reference compound], which “death in mice of yohimbine hydrochloride alone” value (yohimbine toxicity; 30 mg/kg s.c., alone (4 out of 400 mice)) is on record?
**A.** The value was “about 1%”.
